Results published in patent US4996219A, “Imidazolidine derivatives as immunosuppressives” (Boehringer Mannheim GmbH, priority 1988, dated 1991).
In brackets after ≈: the same amount, converted by molar mass. Several values for one entry are separate records, joined by “and”; a condition that tells them apart may be missing. Identical values can stand only once.

Assays:
[1] = system: human B lymphocytes; test: B-cell growth factor dependent proliferation of human B lymphocytes (BCGF); assay type: cell-based; details: BCGF stimulated, 140 h, 3H thymidine incorporation, Imexon and Ex. 1: mean ± standard deviation of n experiments, others: single tests No. 1-3; for IC50: Homo sapiens, Lymphocyte
From the text: (d) B-cell growth factor dependent proliferation of human B lymphocytes (BCGF). The macrophage/monocytes are removed from the mononuclear cell fraction (see above) by adhesion to plastic petri dishes. T lymphocytes are separated by rosetting with neuraminidase-treated sheep erythrocytes. The enriched human B-lymphocyte population so obtained is adjusted to 3×10^5 /ml. 160 /μl of this suspension together with 10 /μl of BCGF (B cell growth factor) and 20 /μl of the substance dilution to be tested are incubated for a total of 140 h. 16 h before the end of incubation, ^3 H thymidine is added and analysis is carried out as already described. […] For the upper two compounds the means plus standard deviations from n experiments are shown.

[2] = system: Meth A fibrosaccoma cell line; test: Tumor-growth Inhibition Test (TGI); assay type: cell-based, mice; details: 48 h, 3H thymidine incorporation, Imexon and Ex. 1: mean ± standard deviation of n experiments, others: single tests No. 1-3; for IC50: Mus musculus, Meth-A
Protocol: (b) Tumor-growth Inhibition Test
A Meth A fibrosaccoma cell line is passaged weekly as ascites in mice. After the ascites is punctured, the cells are washed and adjusted to a cell density of 5×10^4 vital cells/ml in the aforementioned medium. 200 /μl of this suspension are pipetted into the cavities of a microtitration plate and solution of the substances to be tested are added as above. 3 hours before the end of the 48 h incubation period ^3 H thymidine is added. The proliferation of the individual cultures is determined by the incorporated radioactive thymidine.
(§1) For the upper two compounds the means plus standard deviations from n experiments are shown.

[3] = system: human T-lymphocytes; test: Interleukin-2 dependent proliferation of human T-lymphocytes (IL-2); assay type: cell-based; details: IL-2 stimulated, 48 h, 3H thymidine incorporation, Imexon and Ex. 1: mean ± standard deviation of n experiments, others: single tests No. 1-3; for IC50: Homo sapiens, T-lymphocyte
Protocol: (c) Interleukin-2 dependent proliferation of human T-lymphocytes (IL-2)
The mononuclear cell fraction is separated from heparinized human whole blood by means of a Ficoll gradient. After washing twice, the cell number is adjusted to 1×10^6 ml and incubation is carried out with 3 /μg/ml of Concanavalin A for 3 days. After washing twice, the cell number is set to 5×10^5 cells/ml. 160 /μl of this cell suspension are incubated with 20 /μl IL-2 and 20 /μl of a dilution of the test substance in microtitration plates for a total of 48 h. 4 hours before the end of incubation, ^3 H thymidine is added. The proliferation of the cultures is determined by means of the incorporated radioactivity.
as §1

[4] = system: Mice splenocytes; test: Concanavalin-A induced lymphocyte proliferation (LPT); assay type: cell-based
Protocol: (a) Concanavalin-A induced lymphocyte proliferation (LPT)
Mice splenocytes are adjusted in RPMI 1640 medium (with conventional additions of streptomycin, penicillin, L-glutamine and 10% fetal calf serum) to a cell density of 2×10^6 viable cells per ml. 200 μl of this cell suspension are mixed with 20 μl of an 11-fold concentrated solution of the substance to be tested. 0,5 /μg of Concanavalin A in 10 μl of phosphate buffered saline solution (PBS) are added as mitogenic stimulus to each culture. 5 hours before the end of the 48 h incubation period, the individual cultures receive 20 /μl of a 3H-thymidine solution and the proliferation of the cells is determined by means of incorporated radioactivity.
as §1

[5] = Concanavalin A stimulated, 48 h, 3H-thymidine incorporation; Imexon and Ex. 1: mean ± standard deviation of n experiments, others: single tests No. 1-3
[6] = Mus musculus, Splenocyte, Concanavalin A stimulated, 48 h, 3H-thymidine incorporation; Imexon and Ex. 1: mean ± standard deviation of n experiments, others: single tests No. 1-3

| Compound | IC50 TGI [2] | IC50 [2] [µg/mL] | IC50 [1] [µg/mL] | IC50 [3] [µg/mL] | IC50 IL 2 [3] | IC50 BCGF [1] | IC50 LPT [4, 5] | IC50 [4, 6] [µg/mL] | IC50 ([4]; Mus musculus, Splenocyte, 48 h, Concanavalin A stimulated, 3H-thymidine incorporation, Imexon and Ex. 1: mean ± standard deviation of n experiments, others: single tests No. 1-3) [µg/mL] |
| --- | --- | --- | --- | --- | --- | --- | --- | --- | --- |
| C=C1NC(=O)N(C2CCCCC2)C1=N [Ex. BV14, 3-cyclohexyl-4-imino-5-methyleneimidazolidin-2-one] | – | – | < 3 | – | – | – | – | – | – |
| C=C1NC(=O)N(Cc2ccncc2)C1=N [Ex. BV16, 3-(4-pyridylmethyl)-4-imino-5-methyleneimidazolidin2-one] | 5,1 /μg/ml and 5,5 /μg/ml | 3.9 (≈ 19.3 µM) | – | 3.5 (≈ 17.3 µM) | 4,8 /μg/ml | – | – | – | – |
| C=C1NC(=O)N(Cc2ccccc2)C1=N [Ex. 4, 3-Benzyl-4-imino-5-methyleneimidazolidin-2-one] | – | 2.8 (≈ 13.9 µM) | < 3 | – | – | 1,6 /μg/ml | – | – | – |
| CC(C)=C1NC(=O)NC1=N [Ex. 3, 4-Imino-5-isopropylideneimidazolidin-2-one] | – | – | – | – | – | – | 20,7 /μg/ml and > 10 /μg/ml | – | – |
| C=C1NC(=O)NC1=N [Ex. 1, 4-Imino-5-methyleneimidazolidin-2-one] | – | > 10.3 | 1.9 (≈ 17.1 µM) | 2.6 (≈ 23.4 µM) | – | – | – | – | 3.9 (≈ 35.1 µM) |

The next lines start with results.

| IC50 TGI [2] | IC50 [2] [µg/mL] | Compound | IC50 [1] [µg/mL] | IC50 [3] [µg/mL] | IC50 IL 2 [3] | IC50 BCGF [1] | IC50 LPT [4, 5] | IC50 [4, 6] [µg/mL] | IC50 ([4]; Mus musculus, Splenocyte, 48 h, Concanavalin A stimulated, 3H-thymidine incorporation, Imexon and Ex. 1: mean ± standard deviation of n experiments, others: single tests No. 1-3) [µg/mL] |
| --- | --- | --- | --- | --- | --- | --- | --- | --- | --- |
| 2,3 /μg/ml | 4.2 (≈ 33.6 µM) | C=C1NC(=O)N(C)C1=N [Ex. BV11, 3-methyl-4-imino-5-methyleneimidazolidin-2-one] | – | ≤ 3 | – | – | – | – | – |
| 2,1 /μg/ml and 3,5 /μg/ml | < 3 | C=C1NC(=O)N(c2ccccc2)C1=N [Ex. BV17, 3-phenyl-4-imino-5-methyleneimidazolidin-2-one] | – | – | – | – | – | – | – |
| – | 7.5 (≈ 49 µM) | C=C1NC(=O)N(CCC)C1=N [Ex. BV12, 3-n-propyl-4-imino-5-methyleneimidazolidin-2-one] | 3.2 (≈ 20.9 µM) | 5.1 (≈ 33.3 µM) | 4,6 /μg/ml | 2,6 /μg/ml | – | – | – |
| > 30 µg⁻¹ mL⁻¹ | 22.6 (≈ 181 µM) | CC=C1NC(=O)NC1=N [Ex. 2, 4-imino-5-ethylideneimidazolidin2-one] | – | > 10 | – | – | 11,1 /μg/ml | 12 (≈ 95.9 µM) | – |
| – | 11.3 (≈ 102 µM) | N=C1NC(=O)N2CC12 (centres unmarked) [Imexon, 4-imino-1,3-diazabicyclo[3.1.0]hexan-2-one, reference compound] | 0.9 (≈ 8.1 µM) | 5.1 (≈ 45.9 µM) | – | – | – | 6.3 (≈ 56.7 µM) | – |
